Assay results: article PMC6092981 (Bioinorganic Chemistry and Applications, 2018)
Where a name gives a salt, the structure may show the parent alone. Values belong to the molecule of their own block, whether it stands above or below them. Where a SMILES comes first, the peptide text is derived from it. Where no end group is shown, it is not given here. The star is where a group is joined. Cbz = O=C(OCc1ccccc1)*; CH2F = FC*

What was measured:
Jurkat cells [1] = test: MTT assay of Jurkat cells in the presence of caspase, necroptosis and necrosis inhibitors; format: cell-based, human; settings: Z-VAD-FMK 15 µM, 24 h, 37°C; for inhibition of cell death induced by 5: necrostatin-1 30 µM, IM-54 10 µM, 1 h pre-incubation, 5 75 µM, MTT
Experimental: Jurkat cells (1.0 × 10^5 cells/mL) were incubated in 10% FCS RPMI 1640 medium (MTG-free) containing a solution Z-VAD-fmk (15 µM)/necrostatin-1 (30 µM)/IM-54 (10 µM)/(under 5% CO2 at 37°C for 1 h in 96-well plates (BD Falcon). Then, Ir complexes (75 µM) were added and incubated under 5% CO2 at 37°C for 24 h, and then 0.5% MTT reagent in PBS buffer (10 µL) was added to the cells and incubated under 5% CO2 at 37°C for 4 h. A formazan lysis solution (10% SDS in 0.01 N HCl) (100 µL) was added, and the resulting solution incubated overnight under the same conditions, followed by measurement of absorbance at 570 nm with a microplate reader (Bio-Rad).

Jurkat cells [2] = test: PI staining microscopy of Jurkat cells with 5 in the presence of inhibitors; format: cell-based, human; settings: nicardipine 50 µM, verapamil 20 µM, 37°C 1 h, then 5 (35 µM) 24 h
Experimental: The cells were then washed twice with ice-cold PBS containing 0.5% FCS and 0.1% NaN3 and incubated with PI in PBS at room temperature for 10–15 min.

[3] = target: DR5 (immobilised on the QCM sensor chip) (UniProt O14763 56-440); test: 27 MHz quartz crystal microbalance (QCM); DR5 immobilised by EDC/NHS on a 3,3'-dithiodipropionic acid layer on the Au electrode, blocked with ethanolamine; analytes added in PBS, 25°C; apparent constants from the decrease in frequency, 1:1 complexation assumed, Kd = 1/Kapp; settings: both partners purified

Molecule: COC(=O)C[C@H](NC(=O)[C@H](C)NC(=O)[C@@H](NC(=O)OCc1ccccc1)C(C)C)C(=O)CF [Z-VAD-FMK, Z-Val-Ala-Asp(OMe) fluoromethylketone] (Cbz-Val-Ala-Asp(OMe)-CH2F)
inhibition of cell death induced by 5 (Jurkat cells [1]): negligibly inhibited | inhibition of TRAIL-induced cell death (Jurkat cells [1]; TRAIL 150 ng/mL, MTT and flow cytometry (PI)): almost completely

Molecule: COC(=O)C1=C(C)NC(C)=C(C(=O)OCCN(C)Cc2ccccc2)C1c1cccc([N+](=O)[O-])c1 (stereo not shown) [nicardipine, nicardipine hydrochloride]
inhibition of cell death induced by 5 (Jurkat cells [2]): considerably inhibited

Molecule: CN1C(=O)C(Cc2c[nH]c3ccccc23)NC1=S (stereo not shown) [Necrostatin-1]
inhibition of cell death induced by 5 (Jurkat cells [1]): negligibly inhibited

Molecule: CCCCCNC1=C(c2cn(C)c3ccccc23)C(=O)N(C)C1=O [IM-54]
inhibition of cell death induced by 5 (Jurkat cells [1]): negligibly inhibited

Ka [3]: < 10000 M⁻¹ | Kd [3]: > 100 µM
B1: Ir complex 2c (contains a KKGG peptide) (other)
peptide: KKGG
modifications: also: joined to a cyclometalated Ir(III) complex
notes: cationic peptide H2N-KKGG- on the Ir complex
